Measured values as given in patent US10314816B2, “Antimicrobial compounds, compositions and methods of use thereof” (Wisconsin Alumni Research Foundation, priority 2012, dated 2019).
Read-outs that look alike come from different tables or passages of the source.

Legend:
E. coli BW25113 ΔtolC = experiment: MIC of DCAP analogs, LB media, macrodilution (CLSI); type: cell-based; details: Escherichia coli
Method: Luria-Bertani (LB) media (10 g/L tryptone, 10 g/L NaCl, 5 g/L yeast extract, pH 7.0) was used to grow all the strains represented in Tables 5 and 6. All the cultures were grown at 37° C. All the E. coli strains were grown while shaking at 200 rpm and the clinical pathogens were statically incubated. […]

Salmonella typhimurium = experiment: MIC of DCAP analogs, LB media, microdilution (CLSI); type: cell-based; details: Salmonella enterica, microdilution (Table 6)
Method: (§1) Luria-Bertani (LB) media (10 g/L tryptone, 10 g/L NaCl, 5 g/L yeast extract, pH 7.0) was used to grow all the strains represented in Tables 5 and 6. All the cultures were grown at 37° C. All the E. coli strains were grown while shaking at 200 rpm and the clinical pathogens were statically incubated.
(§2) For clinical pathogenic organisms including S. typhimurium, V. cholera, S. boydii, K pneumonia, E. aerogenes, A. baumannii, E. tarda, and M. morganii strains, liquid LB media in 96-well microplates (100 μL/well) and the microdilution method from the CLSI guidelines were used.

Enterobacter aerogenes = experiment: as above; type: cell-based; details: Klebsiella aerogenes, microdilution (Table 6)
Method: as §1, §2

Edwardsiella tarda = experiment: as above; type: cell-based; details: microdilution (Table 6)
Method: as §1, §2

Morganella morganii = experiment: as above; type: cell-based; details: microdilution (Table 6)
Method: as §1, §2

Klebsiella pneumonia = experiment: as above; type: cell-based; details: Klebsiella pneumoniae, microdilution (Table 6)
Method: as §1, §2

Shigella boydii = experiment: as above; type: cell-based; details: microdilution (Table 6)
Method: as §1, §2

Vibrio cholera = experiment: as above; type: cell-based; details: Vibrio cholerae
Method: as §1, §2

Acinetobacter baumannii = experiment: as above; type: cell-based; details: microdilution (Table 6)
Method: as §1, §2

S. aureus FRI 100 [1] = experiment: Minimum biofilm eradication concentration (MBEC); type: cell-based, Staphylococcus aureus; details: S. aureus FRI 100 biofilm
Method: (§3) Determination of the minimum biofilm inhibitory concentration of growth (bMIC) and biofilm eradication concentration (MBEC). Overnight cultures of C. crescentus and S. aureus were grown and diluted 100-fold into appropriate nutrient media. Aliquots of the diluted suspension were transferred into wells of 96-well plates (150 μL/well). 2-fold serial dilutions were performed for compound-containing wells. For every experiment, three replicates for each compound concentration tested were included. After transferring aliquots of the suspension, the plates were closed with specialized lids that have protruding pins (Nunc STP System), and the plates were sealed using Parafilm®. The plates were incubated in a static incubator at 30° C. (C. crescentus) or 37° C. (S. aureus) for 24 hours. After the cells had formed biofilms on the surface of the pins, the pins were rinsed by dipping them in M2 (C. crescentus) or PBS (S. aureus) solutions. To rinse the pins, clean, sterile 96-well plates were used (aliquots of 200 μL/well); each rinse lasted 10 sec. After washing away planktonic cells loosely bound to biofilms, the pins were inserted into a 96-well plate that was pre-aliquoted with nutrient media containing antibiotics (2-fold dilutions, a final volume of 150 μL/well). The plates were sealed with Parafilm®, and incubated for 17 hours, and the bMIC was measured at the end of the incubation by visual inspection. After the bMIC run, the rinse steps were repeated to remove planktonic cells, and the pins were inserted into a 96-well plate that was pre-aliquoted with drug-free nutrient media (aliquots of 150 μL/well). The plates were sealed with Parafilm®, incubated for 24 hours, and the MBEC was measured at the end of the incubation by visual inspection.
After performing bMIC experiments, biofilms growing on the pins of the lid were transferred to nutrient media devoid of antibiotics to measure the minimum concentration of antibiotic that prevented planktonic growth from biofilms in antibiotic-free nutrient media (MBEC). […]

S. aureus FRI 100 [2] = experiment: Minimum stationary-bactericidal concentration (MSC); type: cell-based, Staphylococcus aureus; details: S. aureus FRI 100, stationary cells, 24 hours
Method: (§4) Determination of the Minimum Stationary-Bactericidal Concentration.
(§5) Cultures of C. crescentus (24 hour incubation) and S. aureus cells (5 day incubation) were grown from single colonies. Cells were collected by centrifugation (8500 rpm for 2.5 minutes) and re-suspended in M2 salt solution (for C. crescentus; 1.74 g/L Na2HPO4, 1.06 g/L KH2PO4, and 0.5 g/L NH4Cl) or phosphate-buffered saline (for S. aureus; PBS, Fisher Scientific). The centrifugation and re-suspension was repeated two more times. After the repeated washing steps, the cell suspension was diluted 10-fold to achieve approximately 10^8 cells/mL. Aliquots of the diluted cell suspension were transferred into wells of a 96-well plate (100 μL/well), and 2-fold serial dilutions were performed to test a range of antibiotic concentrations. The plate was sealed with Parafilm® and incubated for 24 hours at room temperature in the dark. After incubation, 50 μl was removed from each well to spread on nutrient agar plates (1.5% agar in PYE for C. crescentus, and LB for S. aureus). The colonies on each plate were counted after growing the cells for 1-2 days. For determining the kinetics of bactericidal activity of DCAP on stationary cultures, the washed cells were diluted by 100-fold in appropriate solutions and tested using a single concentration of the compound while including a DMSO control sample. Cell suspensions were kept in closed microcentrifuge tubes instead of the wells of 96-well plates. 100 μL of the suspensions was removed for plating at each time point. All MSC experiments were performed in static conditions.
(§6) In addition to its activity against actively growing bacteria, DCAP kills cells in stationary phase (Table 3). This property was tested against C. crescentus and S. aureus. […] To ensure that bacteria were deprived of nutrients, the cells were grown into late stationary phase (i.e., 24 hours for C. crescentus and 5 days for S. aureus). These cells were collected, suspended in isotonic solutions devoid of amino acids or sugars, and treated with a small molecule (DMSO, DCAP, CCCP or ampicillin). Cell viability was measured over time by plating culture aliquots on non-selective, solid growth media. The minimum concentration of antibiotic required to completely eliminate colony formation was designated as the minimum stationary-bactericidal concentration (MSC). […] CCCP inhibited the proliferation of C. crescentus cells regardless of their physiological status. However, the MSC of CCCP for S. aureus was >300-fold higher than the MIC. This dramatic decrease in the effectiveness of CCCP in S. aureus may be due to changes in membrane composition as cells adjust their metabolism in nutrient-deprived conditions.

C. crescentus CB15N [3] = experiment: Minimum biofilm eradication concentration (MBEC); type: cell-based, Caulobacter crescentus
Method: as §3
After performing bMIC experiments, biofilms growing on the pins of the lid were transferred to nutrient media devoid of antibiotics to measure the minimum concentration of antibiotic that prevented planktonic growth from biofilms in antibiotic-free nutrient media (MBEC). MBEC indicates whether the exposure to antimicrobial agent used during the bMIC experiment sterilized biofilm-associated cells. […] CCCP was the only effective antibiotic against S. aureus biofilms. Since CCCP was not as effective as DCAP at killing stationary cells, it was hypothesized that this variability in efficacy of membrane-active drugs is in part caused by changes in membrane composition (i.e., membrane proteins and lipid content) at different developmental stages of bacterial cells. […]

C. crescentus CB15N [4] = experiment: Minimum stationary-bactericidal concentration (MSC); type: cell-based, Caulobacter crescentus; details: C. crescentus CB15N, stationary cells, 24 hours
Method: as §4, §5, §6

C. crescentus CB15N [5] = experiment: Minimum biofilm inhibitory concentration (bMIC); type: cell-based, Caulobacter crescentus
Method: as §3, with “After the bMIC run, the rinse steps were repeated to remove planktonic cells, and the pins were inserted into a 96-well plate that was pre-aliquoted with drug-free nutrient media (aliquots of 150 μL/well).” left out
(§7) Membrane-active compounds are also efficient at eradicating biofilm-associated cells (Table 2). […] To determine the efficacy of antibiotics against biofilms, the minimum biofilm inhibitory concentration (bMIC) and the minimum biofilm eradication concentration (MBEC) were measured. […] After 24 hours of exposure to compounds, the lowest concentration of antibiotic that inhibited planktonic cell growth in the wells (bMIC) was determined.

S. aureus FRI 100 [6] = experiment: Minimum biofilm inhibitory concentration (bMIC); type: cell-based, Staphylococcus aureus; details: S. aureus FRI 100 biofilm
Method: as §3, with “After the bMIC run, the rinse steps were repeated to remove planktonic cells, and the pins were inserted into a 96-well plate that was pre-aliquoted with drug-free nutrient media (aliquots of 150 μL/well).” left out
as §7

C. crescentus CB15N [7] = experiment: MIC of bacterial growth, macrodilution (Table 2); type: cell-based, Caulobacter crescentus; details: actively growing cells
Method: Bacterial strains and growth conditions. Luria-Bertani (LB) media (10 g/L tryptone, 10 g/L NaCl, 5 g/L yeast extract, pH 7.2) was used to grow B. subtilis 168, S. aureus FRI100, and P. aeruginosa K1115 strains. For P. aeruginosa PAO1 and K1119 strains and two E. coli BW25113 strains, M8 minimal media (241 mg/L MgSO4, 4 mg/L glucose, 5 mg/L casamino acids, 12.8 g/L Na2HPO4.7H2O, 3 g/L KH2PO4, and 0.5 g/L NaCl) was used. PYE media (2 g/L peptone, 1 g/L yeast extract, 0.8 mM MgSO4, and 0.5 mM CaCl2) was used for culturing C. crescentus cells at 30° C. All cultures were grown at 37° C., except for C. crescentus (30° C.). All cultures were grown while shaking at 200 rpm.
Determination of the minimum inhibitory concentration (MIC) of bacterial growth. The MIC of various organisms in liquid media was determined using the macrodilution method according to the NCCLS guidelines. For the starting inoculum, cultures were diluted to contain approximately 5×10^5 cells/mL in growth media. To create a two-fold dilution series for the macrodilution technique, each compound was added to the first culture tube (4 mL total volume) at the highest concentration. 2 mL of this culture was diluted into an equal volume of inoculated media (a two-fold dilution). The final volume for each culture was 2 mL.

[8] = BW25113, read-out: MIC (ΔtolC E. coli)

OCC(CO)(CO)NC[C@@H](O)Cn1c2ccccc2c2ccccc21 [Compound 4]
MIC (E. coli BW25113 ΔtolC; [8]): > 80 µM

OCC(CO)(CO)NC[C@H](O)Cn1c2ccc(Cl)cc2c2cc(Cl)ccc21 [Compound 3]
MIC (E. coli BW25113 ΔtolC; [8]): 20 µM

CC(C)(C)NCC(O)Cn1c2ccc(Cl)cc2c2cc(Cl)ccc21 (stereo not drawn) [Compound 11]
MIC (E. coli BW25113 ΔtolC; [8]): 40 µM

CCCCCNCC(O)Cn1c2ccc(Cl)cc2c2cc(Cl)ccc21 (stereo not drawn) [Compound 7]
MIC (E. coli BW25113 ΔtolC; [8]): 5 µM

OCC(CO)(CO)NC[C@@H](O)Cn1c2ccc(Cl)cc2c2cc(Cl)ccc21 [Compound 2]
MIC (E. coli BW25113 ΔtolC; [8]): 20 µM

CCC(CC)CNCC(O)Cn1c2ccc(Cl)cc2c2cc(Cl)ccc21 (stereo not drawn) [Compound 10]
MIC (Salmonella typhimurium): 200 µM | MIC (Enterobacter aerogenes): > 200 µM | MIC (Edwardsiella tarda): 12.5 µM | MIC (Morganella morganii): > 200 µM | MIC (Klebsiella pneumonia): > 200 µM | MIC (Shigella boydii): 25 µM | MIC (Vibrio cholera): 6.25 µM | MIC (Acinetobacter baumannii): 25 µM | MIC (E. coli BW25113 ΔtolC; BW25113): 2.5 µM | MIC (E. coli BW25113 ΔtolC; [8]): 2.5 µM

OC(CNC1CCCCC1)Cn1c2ccc(Cl)cc2c2cc(Cl)ccc21 (stereo not drawn) [Compound 9]
MIC (Salmonella typhimurium): > 200 µM | MIC (Enterobacter aerogenes): > 200 µM | MIC (Edwardsiella tarda): 200 µM | MIC (Morganella morganii): > 200 µM | MIC (Klebsiella pneumonia): > 200 µM | MIC (Shigella boydii): 200 µM | MIC (Vibrio cholera): 25 µM | MIC (Acinetobacter baumannii): 100 µM | MIC (E. coli BW25113 ΔtolC; BW25113): 2.5 µM | MIC (E. coli BW25113 ΔtolC; [8]): 2.5 µM

CCC(CC)NCC(O)Cn1c2ccc(Cl)cc2c2cc(Cl)ccc21 (stereo not drawn) [Compound 6]
MIC (E. coli BW25113 ΔtolC; [8]): 5 µM

CC1(C)S[C@@H]2[C@H](NC(=O)[C@H](N)c3ccccc3)C(=O)N2[C@H]1C(=O)O [Amp, ampicillin]
MBEC (S. aureus FRI 100 [1]): >200 µg/mL | MSC (S. aureus FRI 100 [2]): 100 µg/mL | MBEC (C. crescentus CB15N [3]): >400 µg/mL | MBEC (C. crescentus CB15N [3]; listed as ampicillin): > 400 µM | MSC (C. crescentus CB15N [4]): >400 µg/mL | bMIC (C. crescentus CB15N [5]): 100 µg/mL | bMIC (S. aureus FRI 100 [6]): 0.8 µg/mL | MIC (C. crescentus CB15N [7]): 50 µg/mL

OCC(CO)(CO)NCC(O)CN1CCc2cc(Cl)ccc21 (stereo not drawn) [Compound 12]
MIC (E. coli BW25113 ΔtolC; [8]): > 40 µM

OCC(CO)NCC(O)Cn1c2ccc(Cl)cc2c2cc(Cl)ccc21 (stereo not drawn) [Compound 5]
MIC (E. coli BW25113 ΔtolC; [8]): 20 µM

CC(C)CCNCC(O)Cn1c2ccc(Cl)cc2c2cc(Cl)ccc21 (stereo not drawn) [Compound 8]
MIC (Salmonella typhimurium): 50 µM | MIC (Enterobacter aerogenes): 50 µM | MIC (Edwardsiella tarda): 25 µM | MIC (Morganella morganii): 50 µM | MIC (Klebsiella pneumonia): 50 µM | MIC (Shigella boydii): 25 µM | MIC (Vibrio cholera): 6.25 µM | MIC (Acinetobacter baumannii): 12.5 µM | MIC (E. coli BW25113 ΔtolC; BW25113): 2.5 µM | MIC (E. coli BW25113 ΔtolC; [8]): 2.5 µM

CC(CO)(CO)NCC(O)Cn1c2ccc(Cl)cc2c2cc(Cl)ccc21 (stereo not drawn) [Compound 13]
MIC (E. coli BW25113 ΔtolC; [8]): 40 µM

CCC(CO)(CO)NCC(O)Cn1c2ccc(Cl)cc2c2cc(Cl)ccc21 (stereo not drawn) [Compound 14]
MIC (E. coli BW25113 ΔtolC; [8]): 20 µM
